# From patent US12419852B2, “Method for treating lysosomal storage disease” (Exerkine Corporation, priority 2018, dated 2025)
# Key:
# [1] = Pompe disease, 2 weeks after the infusion; cited from earlier work
# GAA knockout mice [2] = experiment: Forelimb grip strength in GAA knockout mice (Pompe disease model); format: in vivo; conditions: change over the 8 week period, FIG. 1A
# Method: (§1) To determine if the ketogenic agent and enhanced ketogenic composition could improve autophagic activity, muscle function and mitochondrial capacity in mice having a lysosomal storage disease, mice lacking the acid alpha glucosidase (GAA) protein (an established mouse model of Pompe disease) were administered the ketogenic agent, the enhanced ketogenic composition or one of several control diets for a period of 8 weeks.
# (§2) Breeding of GAA mice. Four GAA heterozygous breeding pairs (HET; GAA−/+; 6neo/6+) were obtained from Jackson Laboratories (Maine, USA) to generate homozygous GAA knock-outs (GAA; GAA−/−; 6neo/6neo). Mice were housed at McMaster University's Central Animal Facility in standard cages in 12-h light/dark cycles with ad libitum access to water and their respective diets. […]
# (§3) Grip strength, motor coordination, and balance were evaluated prior to the introduction of the experimental diets. Motor coordination and balance were evaluated using a rotarod apparatus (Harvard Apparatus, MA), while forelimb grip strength was evaluated using a metal gripping bar attached to a DFIS-10 Chatillon digital force gage. Upon completion of the baseline testing, all groups were administered their respective experimental diets for a period of 8 weeks, when grip strength, motor coordination, and balance were re-evaluated as endpoint measures. […]
# GAA knockout mice [3] = experiment: Rotarod performance (motor coordination and balance) in GAA knockout mice; format: in vivo; conditions: change over 8 weeks, FIG. 1B
# Method: as §1, §2, §3
# [4] = tested on: autophagic buildup in skeletal muscle of GAA knockout mice; experiment: Autophagic buildup scored on electron micrographs of skeletal muscle; format: in vivo; conditions: skeletal muscle electron micrographs after 8 weeks; 0=no buildup to 3=severe, 7 micrographs; FIG. 2A
# Method: (§4) Experimental groups All mice were fed standard rodent chow (chow diet; Harlan Teklad 8640 22/5), as a base diet with the exception of the group receiving a conventional […] diet (% kcal of SRT diet being 93.2% fat, 6.4% protein and 0.4% carbohydrates; Envigo, TD.07797). […]
# (§5) Grip strength, motor coordination, and balance were evaluated prior to the introduction of the experimental diets. Motor coordination and balance were evaluated using a rotarod apparatus (Harvard Apparatus, MA), while forelimb grip strength was evaluated using a metal gripping bar attached to a DFIS-10 Chatillon digital force gage. Upon completion of the baseline testing, all groups were administered their respective experimental diets for a period of 8 weeks, when grip strength, motor coordination, and balance were re-evaluated as endpoint measures. […] The proteins p62, ubiquitin and mitochondrial complexes 1-5 were evaluated in quadriceps muscle using the following antibodies in 5% milk: p62 (Cell Signalling, Cat. #51145), ubiquitin (Enzo Life Sciences, Cat. #UG95100100) and Total OXPHOS Rodent WB Antibody Cocktail (Abcam, Cat. #ab110413). Autophagic buildup was determined using electron micrographs generated by the McMaster Electron Microscopy Facility. […]
# p62 protein = experiment: Western blotting for p62 in quadriceps muscle; format: in vivo, mice; conditions: western blot, after 8 weeks, FIG. 2B
# Method: as §4, §5
# [5] = tested on: Complex IV enzyme activity; experiment: Complex IV (COX IV) enzymatic activity in quadriceps muscle; format: in vivo, mice; conditions: skeletal muscle, after 8 weeks
# Excerpt: as §4
# To measure COX IV enzymatic activity, quadriceps muscle was homogenized in Lysing Matrix D tubes (MP Biomedicals, Solon, OH, USA) using the FastPrep-24 Tissue and Cell Homogenizer (MP Biomedicals, Solon, OH, USA) for 5×5-second cycles at a speed of 4.0 m/s with samples placed on ice for 5 minutes between cycles. […] The rate of oxidation of reduced cytochrome c was measured at 550 nm for 3 min at 37° C.
# [6] = tested on: mitochondrial complexes 1-5; experiment: Western blotting for mitochondrial complexes 1-5 protein in quadriceps muscle; format: in vivo, mice; conditions: western blot, range over the five complexes, FIGS. 3B-F
# Method: as §4, §5
Compound,fraction of infused protein retained within skeletal muscle [1],decline in forelimb grip strength (GAA knockout mice [2]),improvement in duration of time able to balance on the rotarod apparatus (GAA knockout mice [3]),autophagic buildup score (per mouse total score out of 21) [4],p62 protein expression lower than GAA CON group (p62 protein),"ratio of mean complex IV enzyme activity to mean complex IV protein content, lower compared to WT CON [5]",protein levels of mitochondrial complexes 1-5 higher compared to WT CON [6]
recombinant GAA protein: Infused recombinant acid alpha-glucosidase (GAA) protein used as enzyme replacement therapy in Pompe disease,1-3%,–,–,–,–,–,–
"CC(O)CCO (stereo not shown) [ERT+1,3 BD, 1,3 butanediol]",–,relatively unchanged,46%,12/21,59%,41%,219-647%
ERT: Enzyme replacement therapy: bi-weekly intravenous injections of 40 mg/kg recombinant GAA enzyme (Myozyme; Genzyme),–,20%,little or no change,15/21,23%,43%,103-250%
